{
  "source": "patent US20200283728A1",
  "about": "“MODIFIED T CELLS AND USES THEREOF” (MUSC FOUNDATION FOR RESEARCH DEVELOPMENT, priority 2017, published 2020)",
  "type_in_all_cases": "cell-based, mouse",
  "key": {"[1]": {"system": "ICOS-activated Th17 cells", "experiment": "Cytokine production of ICOS-stimulated TRP-1 Th17 cells expanded with inhibitors (intracellular FACS)", "conditions": "8 days of expansion, vs un-treated Th17 cells", "protocol": "(§1) Expansion of Th17 cells with Wnt/β-catenin and PI3K inhibitors in vitro: TRP-1 splenocytes were activated with irradiated (10Gy) C57BL/6 splenocytes pulsed with TRP-1 peptide (1 μM) added at a 5:1 ratio in 24-well plates (1 mL media containing 1.5×10^6 cells/well). TRP-1 splenocytes were co-stimulated with soluble ICOS agonist (Clone 398.4A, BioLegend) and polarized toward Th17 phenotype as describe above. For in vitro expansion from day 0 of culture 10 μM Ly294002 (Cayman Chemical) or 10 μM CAL-101 (Selleckchem) and/or 60 μM indomethacin (Sigma-Aldrich) was added. Also dimethylosulfoxide 0.01% (Sigma-Aldrich) was added as a control. Th17 cultures were also supplemented with hrIL-2 (100 IU/mL) and rmIL-23 ([…]; R&D). Medium, including cytokines and inhibitors was refreshed every 2-3 days.\nSurface staining of Th17 cells was performed with anti-CD4-APCCy7, anti-Vβ14-FITC (BD Biosciences) anti-CD62L-APC, anti-CD44-PerCPCy5.5, anti-CCR6-PE, anti-CD69-PECy7, anti-CCR7-PE, anti-CD27-PE, anti-CD28-PerCPCy5.5, anti-ICOS-PE and anti-CD25-PECy7/FITC (BioLegend) and viability stain (Invitrogen) on day 8. For all intracellular staining of cytokines (anti-IL-17 PerCPCy5.5, anti-IFN-γ-v450, anti-IL-2-FITC, anti-IL-21-APC, anti-IL-22-PE, anti-TNF-α-FITC; BioLegend) and transcription factors (anti-RORγt-APC, anti-cMaf-PerCPCy5.5, anti-STAT-3-PE, anti-FoxP3-FITC/PE, anti-T-bet-v450; eBiosciences), cells were stimulated for 4-5 h with 50 ng/mL PMA and 750 ng/mL ionomycin (Sigma-Aldrich). Additional antibodies used include: CD127-PECy7 clone A019D5, CD25-APCCy7 clone BC96, CD4-APCCy7 OKT4, CD45RO-APC clone UCHL1, CD62L-FITC clone DREG-56, CD8-PerCPCy5.5 clone SKI, TIM3-PE clone F38-2E2 (biolegend); CCR7-PECy7 clone CCR7, CD8-V450 clone RPA-T8, PD1-FITC clone M1H4, (BD Biosciences). Antibodies used for mouse cell analysis: CD127-PE/V450 clone A7R34, CD25-FITC clone 7D4, CD44-PerCPCy5.5/FITC clone IM7, CD69-PECy7 clone HI.2F3, CD8-PerCPCy5.5 clone 53-6.7, CD8-PECy7 clone YTS156.7.7, PD1-PerCPCy5.5 clone 29F.1A12 V[…]13-PE/APC clone MR12-3/MR12-4 (Biolegend), CD4-APCCy7 clone RM4-5, CD62L-APC clone MEL-14, KLRG1-APC/V450 clone 2F1 (BD). After 1 h, Monensin (BioLegend) was added per manufacturer's instructions. After surface staining, intracellular staining for cytokines and transcription factors was performed using Fixation and Permeabilization buffers (BioLegend) and Foxp3 Staining Buffers (eBioscience), respectively. Flow cytometry acquisition was performed on a FACSVerse or Accuri (BD Bioscience). Data were analyzed with FlowJo software (TreeStar). For experiments with sorted cells, CD8^+Vb13^+ T cells were sorted from pmel-1 cultures using Dynabeads untouched mouse CD8^+ T cell kit (Invitrogen) and a FACSAria cell sorting machine (BD Biosciences)."}, "[2]": {"system": "ICOS-activated Th17 cells", "experiment": "Cytokine secretion of Th17 cells three days after priming (ELISA)", "conditions": "day 3 after priming", "protocol": "as §1, with “TRP-1” left out, “days. Cytokine levels were measured using the mouse IL-17A, INF-γ, IL-2, IL-9, IL-10, IL-21, IL-22, CCL-20, GM-CSF ELISA kits (R&D) following the manufacturer's protocol.” for “days.”"}, "[3]": {"system": "ICOS activated Th17 cells", "experiment": "Cytokine production of inhibitor-primed Th17 cells after secondary re-stimulation in vitro (ELISA)", "conditions": "vs untreated or CAL-101-treated Th17 cells", "description": "FIG. 11: Re-stimulation of ICOS activated Th17 cells in vitro restores their cytokine production after initial inhibition of PI3K/p110δ and Wnt/β-catenin signaling pathways. ELISA analysis of cytokine production 72 hrs after secondary re-stimulation in vitro using splenocytes pulsed with trp-1 peptide (5:1 ratio), PMA/Ionomycin or B16F10 cancer cells of ICOS stimulated Th17 cells expanded with inhibitors as indicated. Data represent mean±SEM of at least three independent experiments.\nCytokine levels were measured using the mouse IL-17A, INF-γ, IL-2, IL-9, IL-10, IL-21, IL-22, CCL-20, GM-CSF ELISA kits (R&D) following the manufacturer's protocol."}, "[4]": {"conditions": "CAL-101 10 μM, Indo 60 μM, Ly294002 10 μM"}},
  "data": [
    {"smiles": "COc1ccc2c(c1)c(CC(=O)O)c(C)n2C(=O)c1ccc(Cl)cc1", "note": "[Indo, indomethacin]", "values": [
      {"measurement": "IFN-γ production", "setting": "[1]; [4]", "result": "did not impact"},
      {"measurement": "IL-17A production", "setting": "[1]; [4]", "result": "did not impact"},
      {"measurement": "IL-22 production", "setting": "[1]", "result": "increased"},
      {"measurement": "TNF-α production", "setting": "[1]", "result": "increased"},
      {"measurement": "CCL-20 secretion", "setting": "[2]", "result": "decreased"},
      {"measurement": "GM-CSF secretion", "setting": "[2]", "result": "no difference"},
      {"measurement": "IFN-γ secretion", "setting": "[2]", "result": "decreased"},
      {"measurement": "IL-2 secretion", "setting": "[2]", "result": "no difference"},
      {"measurement": "IL-9 secretion", "setting": "[2]", "result": "decreased"},
      {"measurement": "IL-10 secretion", "setting": "[2]", "result": "no difference"},
      {"measurement": "IL-17A secretion", "setting": "[2]", "result": "decreased"},
      {"measurement": "IL-21 secretion", "setting": "[2]", "result": "no difference"},
      {"measurement": "IL-2 secretion after peptide re-stimulation", "setting": "[3]", "result": "significantly more"}
    ]}
  ]
}
